Reference: the METLIN SMRT retention time set (Domingo-Almenara et al. 2019)

Experiment: gradient 5% acetonitrile 3 min, to 50% in 2 min, to 85% in 15 min, held 3 min, 100 µL/min
Conditions: column: Zorbax Extend-C18 2.1 x 50 mm; eluents: water / acetonitrile, 0.1% formic acid
Summary of the method: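 Values are retention times taken from adduct peaks that software picked and an analyst inspected. The pure standards were run as mixtures of ~100 molecules on HPLC linked to a quadrupole time-of-flight mass spectrometer, in positive and negative ionization mode. A Zorbax Extend-C18 column (2.1 × 50 mm, 1.8 μm) was used at 100 μL/min with water and acetonitrile, each including 0.1% formic acid.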

SMILES	RP-LC retention time [s]
COc1ccc(OC)c(CNC(=O)NC2COc3ccc(OC)cc3C2)c1 (centres undefined)	810
CCN1CCN(CCNC(=O)c2cc3n(n2)CCCN(Cc2ccc(F)cc2)C3=O)CC1	593
CCN(CC)c1ccc(C2C(C#N)=C(N)Oc3n[nH]c(C)c32)cc1 (centres undefined)	546
COC(=O)c1ccc(NC(=O)Cn2ccc3ccc(-c4nnc(C)o4)cc32)cc1	776
Cc1ccc(C(C)NC(=O)c2cn3ccncc3n2)c(C)c1 (centres undefined)	787
O=C(CN1CCN(Cc2ccc(F)cc2)C1=O)NC1CC1	649
CCn1cnc(S(=O)(=O)N2CCCC(C(=O)NCc3ccc(Cl)cc3)C2)c1 (centres undefined)	756
Cc1oc(-c2[nH]ncc2C(=O)N(C)C)cc1S(=O)(=O)Nc1cccc(F)c1	668
CCC(C)NC(=O)C1CCN(C(=O)c2cc3ccsc3n2Cc2cccc(OC)c2)CC1 (centres undefined)	633
O=C(NCCCN1CCCC1)c1ccc2c(c1)NC(=O)C1CCCCN21 (centres undefined)	588
O=C(c1ccc(F)c(Cl)c1)N1CCN(c2nc(CN3CCOCC3)cs2)CC1	638
CN1CCN(S(=O)(=O)c2ccc(F)c(Cl)c2)CC1	530
Cc1cc(OCC(=O)N2CCC3(O)CCCCC3C2)c2c3c(c(=O)oc2c1)CCC3 (centres undefined)	803
CC1=C(c2ccc(C)cc2)S(=O)(=O)N=C1N1CCCN(C(=O)NC(C)(C)C)CC1	836
CCN1C(=O)c2cccnc2Sc2cc(NC(=O)C3CCC3)ccc21	745
CNC(=O)[C@@H]1C[C@H](Oc2ccccc2)CN1C(=O)c1n[nH]c2ccccc12	706
COc1cccc(Cc2nc(CCS(=O)(=O)c3ccc(F)cc3)no2)c1	904
NC(=O)c1nnn(Cc2cccc([N+](=O)[O-])c2)c1N	616
COC(=O)CSCC(=O)Nc1cc(C)ccc1C	729
Cc1cccc(Cn2c(=O)n(CCNC(=O)CC(C)C)c3ncccc32)c1	800
COc1ccc(N2CCN(c3cc(SCC(=O)Nc4cccc(Cl)c4)ncn3)CC2)cc1	1030
Cc1ccc(C(=O)Nc2cnc(-c3ccc(Cl)cc3)nc2)s1	1130
Cc1[nH]c(C)c(S(=O)(=O)N2CCC(C(=O)N3CCc4ccccc43)CC2)c1C(=O)N1CCCC1	716
COc1cc2c(cc1OC)C(C(=O)NC1CCCCCC1)C(c1cccnc1)N(C)C2=O (centres undefined)	645
CCCCN(C)C(=O)Cn1c(C(C)NC(=O)c2ccco2)nc2ccccc21 (centres undefined)	655
Cc1ccc(S(=O)(=O)N2CCC(CN3CCCCCC3)CC2)cc1F	686
CCOC(=O)C1CCN(C(=O)c2cc(CC)n3nc(-c4ccco4)cc3n2)CC1	886

SMILES	RP-LC retention time [s]
Cc1ccc(-c2csc(NC(=O)Cc3ccc(Cl)cc3)n2)cc1	1120
O=C(CCCn1nnc2ccccc2c1=O)Nc1ccc(F)c(Cl)c1	794
CCSc1nc2ccc(NS(=O)(=O)c3cc(C)cc(C)c3)cc2s1	1120
CC(C)(C)NC(=O)N1CCC(CNC(=O)CSc2ccc(F)cc2)CC1	715
CC(C)(N)c1ncc(-c2ccc(OC(F)(F)F)cc2)[nH]1	693
CC(=O)c1ccc(N2CCN(C(=O)C(=O)c3cccn3C)CC2)cc1	735
CCCNC(=O)C1CCN(c2ccc(SCC(=O)Nc3ccc(C)cc3F)nn2)CC1	679
CCN1CCN(CCCNC(=O)C2CCCN(c3ncnc4onc(C)c34)C2)CC1 (centres undefined)	557
COc1ccc(CCC(=O)NCCCOc2cccc3cccnc23)cc1	593
COc1ccccc1N1CCN(CC(=O)NC2CCSC2=O)C1=O (centres undefined)	621
CCc1cnc2c(c1SCC(=O)N1CCCC1)c(=O)n(C)c(=O)n2C	732
CCOC(=O)C1=C(C)NC2=C(C(=O)CCC2)C1c1ccc(OC)c(OC)c1OC (centres undefined)	727
CC(C)CN1C(=O)c2cccn2CC1C(=O)NCCN1CCCC1 (centres undefined)	572
COc1ccc2c(c1)C1(CCN(C(=O)Nc3ccccc3OC)C1)C(=O)N2C (centres undefined)	808
Cc1oc(C2CCN(C(=O)Nc3ccc(Cl)cc3F)CC2)nc1C(=O)N1CCCCC1	885
CCOc1ccc(NC(=O)C2CCN(c3c(C(=O)N(CC)CC)cnc4snc(C)c34)CC2)cc1	882
CC(=O)N1c2ccc(S(=O)(=O)N3CCCCC3)cc2CC1C(=O)NCCc1ccc(Cl)cc1 (centres undefined)	924
CCOC(=O)c1oc2ccc(S(=O)(=O)N3CC4CN(C)CC(C3)O4)cc2c1C	649
CCOc1ccc(S(=O)(=O)N2CCCC(C(=O)NCc3ccncc3)C2)cc1C (centres undefined)	659
Cc1ccc(Cl)cc1N1CCN(c2cc(C(=O)O)c3cc(NC(=O)C(C)(C)C)ccc3n2)CC1	830
O=C(CN1C(=O)CSc2cccn2-c2ccccc21)NCCC1=CCCCC1	1030
O=C(NCCOc1ccc(F)cc1)C(c1ccccc1)n1cccc1 (centres undefined)	927
Cc1cccc(NC(=O)C2CC(=O)N(c3ccc4c(c3)CCN4C(=O)C3CC3)C2)c1 (centres undefined)	816
CC(C)CC(=O)NCCn1c(=O)n(Cc2ccc(F)cc2)c2cccnc21	750
CCOC(=O)c1ccc(NC(=O)c2csc(-c3cn(C)c4ncccc34)n2)cc1	826
CNC(=O)NCC(c1ccc(F)cc1)c1c[nH]c2ccccc12 (centres undefined)	782

The remaining lines, values ahead:

RP-LC retention time [s]	SMILES
759	Cc1ccc(-c2cc3c4nnc(CCC(=O)N5CCN(C(=O)c6ccco6)CC5)n4ccn3n2)cc1C
659	Cc1nc(CCNC(=O)[C@H]2CCCN2C(=O)c2ccccc2Cl)cs1
935	COc1ccc(CNC(=O)C2(C)CCN(C(=O)Nc3ccc(C)c(Cl)c3)CC2)cc1
887	COc1cccc(-c2ccc(=O)n(Cc3nc(-c4ccc(OC)c(OC)c4)no3)n2)c1
796	Cc1noc(-c2ccc(OC3CN(S(=O)(=O)c4cn(C)cn4)C3)cc2)n1
801	O=C(CC1CCCC1)N1CCCC(c2nc(-c3ccccc3)n[nH]2)C1 (centres undefined)
715	O=C(C1CCCN(c2cnc3nccnc3c2)C1)N1CCN(c2ccccc2)CC1 (centres undefined)
1060	Cc1oc2ccn(Cc3cccc(F)c3)c(=O)c2c1C(=O)NC1CCCC1
615	Cc1nn(C(C)C(=O)NCCN2CCOCC2)c(=O)c2nn(-c3ccccc3)c(C)c12 (centres undefined)
941	Cc1noc2nc(CCC(=O)NC(C)c3ccccc3)nc(N3CCC(C)CC3)c12 (centres undefined)
658	COc1ccc(-c2nc(-c3ccc4c(c3)ncn4CCN3CCCCC3)no2)cc1
909	COc1ccc(Cl)cc1C(=O)N1CCN(c2ccc(-c3nc(C)cs3)cn2)CC1
741	COc1ccc(C(C)NC(=O)Cn2c(=O)n(-c3ccccc3)c3ncccc32)cc1OC (centres undefined)
681	O=C(CC1=C2CCCCC2NC1=O)Nc1ccccc1 (centres undefined)
960	Cc1ccccc1Oc1nccnc1N1CCCC(C(=O)NCc2ccc(Br)cc2)C1 (centres undefined)
664	CCN1CCN(C(=O)c2cc3c(=O)n(Cc4ccco4)ccc3nc2C)CC1
623	Cc1noc(C)c1CN1CCCC(C)(c2nc(-c3ccccc3)no2)C1 (centres undefined)
810	Cc1cccc(S(=O)(=O)N2CCc3c(c(CN4CCCC4)nn3C)C2)c1

RP-LC retention time [s]	SMILES
716	CCOC(=O)c1c(C)oc2ncnc(NCCN3CCN(c4ccc(OC)cc4)CC3)c12
851	O=c1ccc(S(=O)(=O)N2CCCCC2)cn1Cc1ccccc1
664	CC(=O)Nc1ccc(C(=O)N2CCC3(CC2)N=C(c2ccccc2)NO3)cc1
857	Cc1nc(-c2ccc3c(c2)n(CC(=O)NC2CCCCC2)c(=O)n3C(C)C)no1
967	O=C(CCc1nc(CSc2nnc(-c3ccccc3)o2)no1)Nc1ccc(Br)cc1
655	Cc1cc(C)c(CN2CCC3(CC2)CC3c2noc(C)n2)c(C)c1 (centres undefined)
625	CCn1c(=O)c(C(=O)N2CCN(c3ccccn3)CC2)nc2cc(C)c(C)cc21
813	CCOc1ccccc1CNC(=O)C1CCCN(c2ncnc3c2oc2ccccc23)C1 (centres undefined)
695	CCN(CC)CCNC(=O)c1nc(-c2oc3ccc(C)cc3c2C)no1
702	Cc1ccc(-c2ccc(-n3nc(C)c(S(=O)(=O)NCCN4CCOCC4)c3C)nn2)cc1C
1290	CCc1ccccc1NS(=O)(=O)c1cc(-c2nc(C(C)(C)C)cs2)cs1
972	Cc1c(S(=O)(=O)NCc2ccccc2)c(C)n(C)c1-c1nnc(C2CCC2)o1
674	O=C(NCCc1nc2cccnc2n1-c1ccccc1)c1ccsc1
947	Cc1cc(C)n(-c2c(C)c(C)nc3c(-c4ccccc4)cnn23)n1
771	Cc1nc(C2CCOCC2)n(C2CCN(S(=O)(=O)c3ccc(Cl)cc3C)C2)n1 (centres undefined)
619	CCc1ccc(C(=O)c2cnc3ccc(OC)cc3c2N2CCN(CC)CC2)cc1
688	O=C(Cc1ccccc1F)NC1CCN(c2cc(-c3ccccc3)[nH]n2)C1 (centres undefined)
838	Cc1ccc(Cl)cc1NC(=O)N1CCN(c2ccc(=O)n(-c3ccccc3)n2)CC1
